From patent US7186701B2, “Dehydrating agent and method for dehydrating moist article using the agent and dehydrated article obtained by the method” (Kabushiki Kaisha Hayashibara Seibutsu Kagaku Kenkyujo, priority 2001, dated 2007)

Assays:
[1] = test system: α-isomaltosylglucosaccharide-forming enzyme; test: Specificity of transfer acceptor (C9 enzyme); type: biochemical, Bacillus globisporus C9 strain; set-up: key: −: no saccharide-transferred product was detected through transferring reaction to acceptor; ±: a saccharide-transferred product was detected in an amount of less than one percent through transfer reaction to acceptor; +: a saccharide-transferred product was detected in an amount of at least one percent but less than ten percent through transferring reaction to acceptor; ++: a saccharide-transferred product was detected in an amount of at least ten percent through transferring reaction to acceptor; conditions: acceptor 1.6%, PINE-DEX #100 donor 4%, one unit/g donor, 30° C., pH 6.0, 24 hours
Method: (§1) A variety of saccharides were tested whether they could be used as transferring-acceptors for the α-isomaltosylglucosaccharide-forming enzyme. A solution of D-glucose, D-xylose, L-xylose, D-galactose, D-fructose, D-mannose, D-arabinose, D-fucose, L-sorbose, L-rhamnose, methyl-α-glucopyranoside, methyl-β-glucopyranoside, N-acetyl-glucosamine, sorbitol, α,α-trehalose, isomaltose, isomaltotriose, cellobiose, gentibiose, maltitol, lactose, sucrose, α-cyclodextrin, β-cyclodextrin, or γ-cyclodextrin was prepared. […] The reaction mixtures after the enzymatic reactions were analyzed on gas chromatography (abbreviated as “GLC” hereinafter) for monosaccharides and disaccharides as acceptors, and on HPLC for trisaccharides and higher saccharides as acceptors to confirm whether these saccharides could be used as their transfer acceptors. In the case of performing GLC, the following apparatuses and conditions were used: […] In the case of HPLC analysis, the apparatuses and conditions used were: HPLC apparatus, “CCPD” commercialized by Tosoh Corporation, Tokyo, Japan; column, “ODS-AQ-303” commercialized by YMC Co., Ltd., Tokyo, Japan; eluent, water at a flow rate of 0.5 ml/min; and detection, a differential refractometer.

[2] = test system: α-isomaltosylglucosaccharide-forming enzyme; test: Specificity of transfer acceptor (C11 enzyme); type: biochemical, Bacillus globisporus C11 strain; set-up: key: −: no saccharide-transferred product was detected through transferring reaction to acceptor; ±: a saccharide-transferred product was detected in an amount of less than one percent through transfer reaction to acceptor; +: a saccharide-transferred product was detected in an amount of at least one percent but less than ten percent through transferring reaction to acceptor; ++: a saccharide-transferred product was detected in an amount of at least ten percent through transferring reaction to acceptor; conditions: acceptor 1.6%, PINE-DEX #100 donor 4%, one unit/g donor, 30° C., pH 6.0, 24 hours
Method: as §1

Structure (SMILES)	Product of saccharide transferring reaction, Enzyme of C9 strain [1]	Product of saccharide transferring reaction, Enzyme of C11 strain [2]
O=C[C@H](O)[C@@H](O)[C@H](O[C@@H]1O[C@H](CO)[C@@H](O)[C@H](O)[C@H]1O)[C@H](O)CO [Cellobiose, cellobiose]	++ (a saccharide-transferred product was detected in an amount of at least ten percent through transferring reaction to acceptor)	++ (a saccharide-transferred product was detected in an amount of at least ten percent through transferring reaction to acceptor)
O=C[C@@H](O)[C@H](O)[C@H](O)CO [D-Arabinose, D-arabinose]	± (a saccharide-transferred product was detected in an amount of less than one percent through transfer reaction to acceptor)	± (a saccharide-transferred product was detected in an amount of less than one percent through transfer reaction to acceptor)
O=C(CO)[C@@H](O)[C@H](O)[C@H](O)CO [D-Fructose, D-fructose]	+ (a saccharide-transferred product was detected in an amount of at least one percent but less than ten percent through transferring reaction to acceptor)	+ (a saccharide-transferred product was detected in an amount of at least one percent but less than ten percent through transferring reaction to acceptor)
C[C@@H](O)[C@H](O)[C@H](O)[C@@H](O)C=O [D-Fucose, D-fucose]	+ (a saccharide-transferred product was detected in an amount of at least one percent but less than ten percent through transferring reaction to acceptor)	+ (a saccharide-transferred product was detected in an amount of at least one percent but less than ten percent through transferring reaction to acceptor)
O=C[C@H](O)[C@@H](O)[C@@H](O)[C@H](O)CO [D-Galactose, D-galactose]	+ (a saccharide-transferred product was detected in an amount of at least one percent but less than ten percent through transferring reaction to acceptor)	+ (a saccharide-transferred product was detected in an amount of at least one percent but less than ten percent through transferring reaction to acceptor)
O=C[C@@H](O)[C@@H](O)[C@H](O)[C@H](O)CO [D-Mannose, D-mannose]	−	−
O=C[C@H](O)[C@@H](O)[C@H](O)CO [D-Xylose, D-xylose]	++ (a saccharide-transferred product was detected in an amount of at least ten percent through transferring reaction to acceptor)	++ (a saccharide-transferred product was detected in an amount of at least ten percent through transferring reaction to acceptor)
OC[C@H]1O[C@@H](OC[C@H]2OC(O)[C@H](O)[C@@H](O)[C@@H]2O)[C@H](O)[C@@H](O)[C@@H]1O (stereo partly shown) [Gentibiose, gentibiose]	++ (a saccharide-transferred product was detected in an amount of at least ten percent through transferring reaction to acceptor)	++ (a saccharide-transferred product was detected in an amount of at least ten percent through transferring reaction to acceptor)
OC[C@H]1O[C@H](OC[C@H]2OC(O)[C@H](O)[C@@H](O)[C@@H]2O)[C@H](O)[C@@H](O)[C@@H]1O (stereo partly shown) [Isomaltose, isomaltose]	++ (a saccharide-transferred product was detected in an amount of at least ten percent through transferring reaction to acceptor)	++ (a saccharide-transferred product was detected in an amount of at least ten percent through transferring reaction to acceptor)
OC[C@H]1O[C@H](OC[C@H]2O[C@H](OC[C@H]3OC(O)[C@H](O)[C@@H](O)[C@@H]3O)[C@H](O)[C@@H](O)[C@@H]2O)[C@H](O)[C@@H](O)[C@@H]1O (stereo partly shown) [Isomaltotriose, isomaltotriose]	++ (a saccharide-transferred product was detected in an amount of at least ten percent through transferring reaction to acceptor)	++ (a saccharide-transferred product was detected in an amount of at least ten percent through transferring reaction to acceptor)
C[C@H](O)[C@H](O)[C@@H](O)[C@@H](O)C=O [L-Rhamnose, L-rhamnose]	−	−
O=C(CO)[C@@H](O)[C@H](O)[C@@H](O)CO [L-Sorbose, L-sorbose]	+ (a saccharide-transferred product was detected in an amount of at least one percent but less than ten percent through transferring reaction to acceptor)	+ (a saccharide-transferred product was detected in an amount of at least one percent but less than ten percent through transferring reaction to acceptor)
O=C[C@@H](O)[C@H](O)[C@@H](O)CO [L-Xylose, L-xylose]	++ (a saccharide-transferred product was detected in an amount of at least ten percent through transferring reaction to acceptor)	++ (a saccharide-transferred product was detected in an amount of at least ten percent through transferring reaction to acceptor)
OC[C@H]1O[C@@H](O[C@H]2[C@H](O)[C@@H](O)C(O)O[C@@H]2CO)[C@H](O)[C@@H](O)[C@H]1O (stereo partly shown) [Lactose, lactose]	++ (a saccharide-transferred product was detected in an amount of at least ten percent through transferring reaction to acceptor)	++ (a saccharide-transferred product was detected in an amount of at least ten percent through transferring reaction to acceptor)
CO[C@H]1O[C@H](CO)[C@@H](O)[C@H](O)[C@H]1O [Methyl-α-glucopyranoside, methyl-α-glucopyranoside]	++ (a saccharide-transferred product was detected in an amount of at least ten percent through transferring reaction to acceptor)	++ (a saccharide-transferred product was detected in an amount of at least ten percent through transferring reaction to acceptor)
CO[C@@H]1O[C@H](CO)[C@@H](O)[C@H](O)[C@H]1O [Methyl-β-glucopyranoside, methyl-β-glucopyranoside]	++ (a saccharide-transferred product was detected in an amount of at least ten percent through transferring reaction to acceptor)	++ (a saccharide-transferred product was detected in an amount of at least ten percent through transferring reaction to acceptor)
CC(=O)N[C@H]1C(O)O[C@H](CO)[C@@H](O)[C@@H]1O (stereo partly shown) [N-Acetyl-glucosamine, N-acetyl-glucosamine]	+ (a saccharide-transferred product was detected in an amount of at least one percent but less than ten percent through transferring reaction to acceptor)	+ (a saccharide-transferred product was detected in an amount of at least one percent but less than ten percent through transferring reaction to acceptor)
OC[C@@H](O)[C@@H](O)[C@H](O)[C@@H](O)CO [Sorbitol, sorbitol]	−	−
OC[C@H]1O[C@@](CO)(O[C@H]2O[C@H](CO)[C@@H](O)[C@H](O)[C@H]2O)[C@@H](O)[C@@H]1O [Sucrose, sucrose]	++ (a saccharide-transferred product was detected in an amount of at least ten percent through transferring reaction to acceptor)	++ (a saccharide-transferred product was detected in an amount of at least ten percent through transferring reaction to acceptor)
OC[C@H]1O[C@@H]2O[C@H]3[C@H](O)[C@@H](O)[C@@H](O[C@H]4[C@H](O)[C@@H](O)[C@@H](O[C@H]5[C@H](O)[C@@H](O)[C@@H](O[C@H]6[C@H](O)[C@@H](O)[C@@H](O[C@H]7[C@H](O)[C@@H](O)[C@@H](O[C@H]1[C@H](O)[C@H]2O)O[C@@H]7CO)O[C@@H]6CO)O[C@@H]5CO)O[C@@H]4CO)O[C@@H]3CO [α-Cyclodextrin, α-cyclodextrin]	−	−
